Here are results for 21 molecules from patent US7662971B2, “Inhibitors of fatty acid amide hydrolase” (The Scripps Research Institute, priority 2002, dated 2010).

For data set [1], the target named is T1, FAAH (Rattus norvegicus, UniProt P97612).
T1 construct: using a solubilized liver plasma membrane extract containing FAAH; from tissue; host or cells: liver plasma membrane extract (solubilized)
T1 sequence (P97612 1-579): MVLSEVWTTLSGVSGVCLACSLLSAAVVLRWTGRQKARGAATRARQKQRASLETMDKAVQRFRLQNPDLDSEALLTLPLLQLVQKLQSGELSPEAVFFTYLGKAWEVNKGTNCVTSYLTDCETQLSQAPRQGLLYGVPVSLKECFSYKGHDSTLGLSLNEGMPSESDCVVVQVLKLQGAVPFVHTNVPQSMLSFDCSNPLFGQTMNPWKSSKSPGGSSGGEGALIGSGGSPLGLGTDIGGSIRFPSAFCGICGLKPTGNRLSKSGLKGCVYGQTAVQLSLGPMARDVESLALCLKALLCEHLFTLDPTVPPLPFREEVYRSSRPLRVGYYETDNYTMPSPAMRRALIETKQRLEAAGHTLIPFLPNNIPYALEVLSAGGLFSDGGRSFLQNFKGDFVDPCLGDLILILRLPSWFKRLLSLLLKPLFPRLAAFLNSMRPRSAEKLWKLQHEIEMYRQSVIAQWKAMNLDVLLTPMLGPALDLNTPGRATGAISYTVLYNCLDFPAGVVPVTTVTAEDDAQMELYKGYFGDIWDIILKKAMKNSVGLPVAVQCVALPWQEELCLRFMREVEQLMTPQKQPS
Nature of the data set: FAAH enzyme inhibition, breakdown of 14C-oleamide to oleic acid. It is filed as biochemical. Particulars: 5-(2-pyridyl)-substituted oxazole head group, FIG. 4. As to the method:
All enzyme assays were performed at 20-23° C. using a solubilized liver plasma membrane extract containing FAAH in a reaction buffer of 125 mM Tris, 1 mM EDTA, 0.2% glycerol, 0.02% Triton X-100, 0.4 mM HEPES, pH 9.0 buffer (M. P. Patricelli, et al., (1998) Bioorg. Med. Chem. Lett. 8, 613-618; and J. E. Patterson, et al., (1996) J. Am. Chem. Soc. 118, 5938-5945). The initial rates of hydrolysis were monitored by following the breakdown of ^14C-oleamide to oleic acid as previously described (B. F. Cravatt, et al., (1995) Science 268, 1506-1509; and M. P. Patricelli, et al., (1998) Bioorg. Med. Chem. Lett. 8, 613-618). The inhibition was reversible, non time-dependent and linear least squares fits were used for all reaction progress curves and R^2 values were consistently >0.97. IC50 values were determined from the inhibition observed at 3-5 different inhibitor concentrations (from three or more trials at each inhibitor concentration) using the formula IC50=[I]/[(K0/Ki)−1], where K0 is the control reaction rate without inhibitor and Ki is the rate with inhibitor at concentration [I] (K. Conde-Frieboes, et al., (1996) J. Am. Chem. Soc. 118, 5519-5525). Ki values were determined by the Dixon method (x-intercepts of weighted linear fits of [I] versus 1/rate plots at constant substrate concentration, which were converted to Ki values using the formula Ki=−xint/[1+[S]/Km]).

Data set [2] concerns mice. The data set can be described thus: hot plate test (thermal pain). It is filed as in vivo. As to the method:
FIG. 12 illustrates a bar graph showing the reduced thermal pain responses 60 minutes following the injection of OL-135 (10 mg/kg, i.p.). This test is the hot plate test and there is no effect with the vehicle and there is some delay after administration of the OL-135. [p<0.01; N=12 mice per group; results shown as means ±S.E.]
The mice received an i.p. injection of vehicle or SR 141716A (3 mg/kg); 10 minutes later all subjects were given OL-135 (10 mg/kg, i.p.) and then evaluated in the hot plate test one hour after the second injection. [p<0.001 for OL-135-treated mice that were pretreated with vehicle versus either their pre-injection baseline latencies or OL-135 treated mice that were pretreated with SR 141716A. Results are shown as means ±S. E. N=6 mice/group.]
In general terms: Thermal pain tests record how soon the animal reacts.

The subject of data set [3] is mice. Nature of the data set: tail withdrawal / tail immersion test (thermal pain). It is filed as in vivo. Here is the method: FIG. 11 illustrates a bar graph showing the reduced thermal pain responses 60 minutes following the injection of OL-135 (10 mg/kg, i.p.). This test is the tail withdrawal test and there is no effect with the vehicle while there is marked delay after administration of the OL-135. [p<0.001; N=12 mice per group; results shown as means ±S.E.]
The mice received an i.p. injection of vehicle or SR 141716A (3 mg/kg); 10 minutes later all subjects were given OL-135 (10 mg/kg, i.p.) and then evaluated in the tail immersion test one hour after the second injection. (p<0.001 for OL-135-treated mice that were pretreated with vehicle versus either their pre-injection baseline latencies or OL-135 treated mice that were pretreated with SR 141716A.) Results are shown as means ±S. E. N=6 mice/group.

[4] abbreviates: SR 141716A 3 mg/kg i.p. 10 minutes before OL-135 10 mg/kg i.p., one hour after second injection.

One may read the melting point as the temperature, or range, at which the solid turns liquid. `CCCCCCCCCCCCCCCCCC(=O)c1ncc(-c2ccccn2)o1` [Compound 182, 1-(5-(Pyridin-2-yl)oxazol-2-yl)octadecan-1-one] had a melting point of 86 to 87 °C.
As for `CCCCCCCCCCCCCCCC(=O)c1ncc(-c2ccccn2)o1` [Compound 183, 1-(5-(Pyridin-2-yl)oxazol-2-yl)hexadecan-1-one], the melting point lay in the range of 78 to 80 °C.
On the same count and under the same terms, then `CCCCCCCCCCCCCC(=O)c1ncc(-c2ccccn2)o1` [Compound 184, 1-(5-(Pyridin-2-yl)oxazol-2-yl)tetradecan-1-one], with 79 to 80 °C.
Take `CCCCCCCCCCCC(=O)c1ncc(-c2ccccn2)o1` [Compound 185, 1-(5-(Pyridin-2-yl)oxazol-2-yl)dodecan-1-one]: the melting point fell in the range of 73 to 74 °C. For the same molecule, in data set [1], the “difference in Ki between compounds 185 and 200” value is “factor of two”.
On to `CCCCCCCCCC(=O)c1ncc(-c2ccccn2)o1` [Compound 187, 1-(5-(Pyridin-2-yl)oxazol-2-yl)decan-1-one], for which the melting point fell in the range of 56 to 57 °C.
Turning to `CCCCCCCCC(=O)c1ncc(-c2ccccn2)o1` [Compound 188, 1-(5-(Pyridin-2-yl)oxazol-2-yl)nonan-1-one], the melting point lay within 56 to 57 °C.
In the case of `CCCCCCCC(=O)c1ncc(-c2ccccn2)o1` [Compound 189, 1-(5-(Pyridin-2-yl)oxazol-2-yl)octan-1-one], the melting point was determined as 56 °C.
Take `CCCCCCC(=O)c1ncc(-c2ccccn2)o1` [Compound 190, 1-(5-(Pyridin-2-yl)oxazol-2-yl)heptan-1-one]: the melting point is 52 °C.
`CCCCCC(=O)c1ncc(-c2ccccn2)o1` [Compound 191, 1-(5-(Pyridin-2-yl)oxazol-2-yl)hexan-1-one] registered a melting point of 49 to 50.5 °C.
Take `CCCCC(=O)c1ncc(-c2ccccn2)o1` [Compound 192, 1-(5-(pyridin-2-yl)oxazol-2-yl)pentan-1-one]: the melting point fell in the range of 36 to 37 °C.
`CCCC(=O)c1ncc(-c2ccccn2)o1` [Compound 193, 1-[5-(Pyridin-2-yl)oxazol-2-yl]butan-1-one] gave a melting point of 54 to 55 °C.
For the molecule `CCC(=O)c1ncc(-c2ccccn2)o1` [Compound 194, 1-[5-(Pyridin-2-yl)oxazol-2-yl]propan-1-one], the melting point lay in the range of 65 to 67 °C.
Take `O=C(CCCCc1ccccc1)c1ncc(-c2ccccn2)o1` [Compound 198, 1-Oxo-1-[5-(2-pyridyl)oxazol-2-yl]-5-phenylpentane]: the melting point lay within 49 to 51 °C.
Same read-out and setting: the same measure for `O=C(CCCCCc1ccccc1)c1ncc(-c2ccccn2)o1` [Compound 199, 1-Oxo-1-[5-(2-pyridyl)oxazol-2-yl]-6-phenylhexane]: 43.5 to 45.5 °C.
`O=C(CCCCCCc1ccccc1)c1ncc(-c2ccccn2)o1` [Compound 200, 1-Oxo-1-[5-(2-pyridyl)oxazol-2-yl]-7-phenylheptane]: in data set [1], the “difference in Ki between compounds 185 and 200” value was “factor of two”.
Molecule `O=C(CCCCCCCc1ccccc1)c1ncc(-c2ccccn2)o1` [Compound 201, 1-Oxo-1-[5-(2-pyridyl)oxazol-2-yl]-8-phenyloctane] showed a melting point of 72 to 73 °C.
`C=CCCCCCCCC(=O)c1ncc(-c2ccccn2)o1` [Compound 203, 1-Oxo-1-[5-(2-pyridyl)oxazol-2-yl]-9-decene] gave a melting point of 55 to 57 °C.
Molecule `C#CCCCCCCCC(=O)c1ncc(-c2ccccn2)o1` [Compound 204, 1-Oxo-1-[5-(2-pyridyl)oxazol-2-yl]-9-decyne] yielded a melting point of 64.5 to 65.5 °C.
`CCCCCCCCC#CCCCCCCCC(=O)c1ncc(-c2ccccn2)o1` [Compound 205, 1-Oxo-1-[5-(2-pyridyl)oxazol-2-yl]-9-octadecyne] came in with a melting point of 41 °C.
With `O=C(CCCCCCc1ccccc1)c1ncc(-c2ccccn2)o1` [OL-135], the “thermal pain response, hot plate test” value in data set [2] (10 mg/kg, i.p., 60 minutes following injection, p<0.01) is “some delay”. In addition, the “thermal pain response, tail withdrawal test” value in data set [3] (10 mg/kg, i.p., 60 minutes following injection, p<0.001) is recorded as “marked delay”.
As to `Cc1c(C(=O)NN2CCCCC2)nn(-c2ccc(Cl)cc2Cl)c1-c1ccc(Cl)cc1` [SR 141716A, reference compound], in data set [2] (setting [4]), the “effect on OL-135 analgesia, hot plate test” value is reported as “blocking the analgesic effects of OL-135”. The “effect on OL-135 analgesia, tail immersion test” value in data set [3] (setting [4]) is “blocking the analgesic effects of OL-135”.
